Source: patent US20170340688A1, “TITRATED EXTRACTS OF CYNARA SCOLYMUS AND USES THEREOF” (priority 2014, published 2017)
In brackets after ≈: the same amount, converted by molar mass.

Columns and labels:
STAT3 [1] = test: Glutathionylation of STAT3; type: cell-based; conditions: cynaropicrin 12 microM, 25 μM
Protocol: STAT3 was immunoprecipitated by incubating the protein cell extract overnight with an anti-STAT3 antibody. The proteins obtained were separated by means of SDS-PAGE in non-reducing conditions and were transferred on PVDF membrane. The glutathionylated STAT3 was recognised using an anti-GSH antibody.

STAT3 [2] = target: T1, STAT3 (Homo sapiens, UniProt P40763); test: Modulation of the STAT3 pathway in DU145 cells (Western Blot, EMSA); type: cell-based; design: The cell line DU145 expresses pStat3 in a constitutive manner; endogenous in cells; host or cells: DU145 (human prostate carcinoma, ATCC HTB-81); conditions: extract 200 μg/ml (0.181% cynaropicrin) 2-4 hours, cynaropicrin 25 μM
T1 sequence (P40763 whole entry): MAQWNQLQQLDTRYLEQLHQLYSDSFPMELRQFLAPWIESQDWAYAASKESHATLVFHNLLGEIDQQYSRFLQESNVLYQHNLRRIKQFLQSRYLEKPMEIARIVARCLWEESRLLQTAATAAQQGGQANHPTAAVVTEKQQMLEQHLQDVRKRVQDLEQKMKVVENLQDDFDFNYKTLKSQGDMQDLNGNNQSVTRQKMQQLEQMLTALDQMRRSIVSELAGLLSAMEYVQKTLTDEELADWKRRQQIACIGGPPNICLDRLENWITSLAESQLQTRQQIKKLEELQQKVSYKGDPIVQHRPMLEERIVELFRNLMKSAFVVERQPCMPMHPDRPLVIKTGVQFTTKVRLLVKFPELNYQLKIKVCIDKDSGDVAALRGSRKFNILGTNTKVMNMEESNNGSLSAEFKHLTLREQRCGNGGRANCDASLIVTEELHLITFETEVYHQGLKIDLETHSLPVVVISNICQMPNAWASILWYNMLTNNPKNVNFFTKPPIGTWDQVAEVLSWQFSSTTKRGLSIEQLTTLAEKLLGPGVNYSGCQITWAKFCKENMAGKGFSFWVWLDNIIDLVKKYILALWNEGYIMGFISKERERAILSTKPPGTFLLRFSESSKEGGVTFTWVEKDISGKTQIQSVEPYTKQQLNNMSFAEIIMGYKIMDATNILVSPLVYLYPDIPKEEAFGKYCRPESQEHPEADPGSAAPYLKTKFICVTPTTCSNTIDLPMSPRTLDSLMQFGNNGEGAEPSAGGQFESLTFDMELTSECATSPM
Protocol: (§1) The cells were lysed in ice for 30 min in lysis buffer NP40 (50 mM Tris-HCl pH 7.4, 150 mM NaCl, 1% NP-40, 1 mM EGTA, 1 mM EDTA) complemented with inhibitors of protease and phosphatase (5 mM PMSF, 3 mM NaF, 1 mM DTT, 1 mM NaVO4). Equal amounts of total extracts of protein (30 μg) were broken down by means of denaturing electrophoresis (SDS-PAGE) in 8% polyacrylamide gel and transferred for 2 hours on nitrocellulose membrane. The membranes were blocked with a 5% solution of milk dissolved in TBS-Tween_20 0.05% for 1 hour and incubated with the specific primary antibodies. The following primary antibodies were used: anti-beta actin (A-2228, SIGMA), anti-pSTAT3 (Tyr-705) (sc8059, Santa Cruz) and anti-STAT3 (sc7179, Santa Cruz). The secondary antibodies were peroxidase-conjugated (Santa Cruz), and ECL reagents (Amersham, GE Healthcare, Piscataway, N.J., USA) were used for the chemiluminescence.
(§2) 200 μg/ml of extract that contains 0.181% of cynaropricrin contain 1.2 μM of cynaropricrin.

GSH = test: Intracellular analysis of GSH (colorimetric); type: cell-based; conditions: cynaropicrin 12.5, 25, 50 μM
Protocol: The intracellular concentration of GSH was evaluated by means of a colorimetric method. The cell extract, deproteinised by means of 10% trichloroacetic acid, was treated with dithio nitrobenzene (DTNB), and the quantity of TNB, which is released following the reaction with GSH, was evaluated by analysing the absorbance at 412 nm.

[3] = system: confluent prostatic adenocarcinoma cell line DU145; test: WST-1 cell vitality assay, confluent DU145 (high levels of constitutively activated STAT3); type: cell-based, human
Protocol: FIG. 7 Assay of cell vitality in the confluent prostatic adenocarcinoma cell line DU145, treated with various concentrations of artichoke extract (50-600 μg/ml) for various treatment times (24 and 48 hours) with indications of the content in cynaropicrin of the extract. The confluency of the cells increases the levels of constitutively activated STAT3, making the cells themselves largely resistant to death. The vitality was analysed using the WST-1 assay (WST-1 test, see the experimental section for the conditions). […] The squares show the trend over 24 hours and the circles show the trend at 48 hours with extract doses from 0 to 600 μg/ml and the respective content in cynaropicrin, expressed both in μg/ml and in μM, of the extract at the various concentrations (100, 200, 300, 400, 500, 600 μg/ml).
FIG. 8. […] The vitality was analysed using the WST-1 assay (WST-1 test, see the experimental section for the conditions). […]
Cytotoxicity was assayed using the WST assay (WSTs=water soluble tetrazolium salts) which utilises the ability of mitochondrial dehydrogenases to separate the tetrazole ring from the yellow-coloured WST molecule (tetrazolium salt) to give an orange formazan salt. The amount of formazan produced following the treatment of the cells with the substances being tested is measured using spectrophotometry and is proportional to the number of living cells. […]

STAT3 [4] = target: T1, STAT3; test: Modulation of the STAT3 pathway in KARPAS cells (Western Blot, EMSA); type: cell-based; conditions: extract 200 μg/ml (0.181% cynaropicrin) 2-4 hours, cynaropicrin 25 μM
Protocol: as §1, §2

[5] = system: human carcinoma cells DU145; test: WST-1 cell vitality in co-treatment with chemotherapeutic agents, DU145; type: cell-based
Protocol: Cytotoxicity was assayed using the WST assay (WSTs=water soluble tetrazolium salts) which utilises the ability of mitochondrial dehydrogenases to separate the tetrazole ring from the yellow-coloured WST molecule (tetrazolium salt) to give an orange formazan salt. The amount of formazan produced following the treatment of the cells with the substances being tested is measured using spectrophotometry and is proportional to the number of living cells. WST-1 and in particular WST-8 (2-(2-methoxy-4-nitrophenyl)-3-(4-nitrophenyl)-5-(2,4-disulfophenyl)-2H-tetrazolium) are advantageous with respect to MTT because they reduce outside the cells, in combination with PMS as electron mediator, to produce water-soluble formazan.
The assays were carried out in parallel with variable doses of cynaropicrin in place of the extract, to compare the efficacy of the extract and that of cynaropicrin.

MDA-MB231 = test: Cell vitality by Trypan Blue/Countess, MDA-MB231 under normoxia; type: cell-based; conditions: Homo sapiens, MDA-MB-231, 24 hours
Protocol: Human breast cancer cell lines T47-D and MDA-MB231, human colorectal adenocarcinoma line HT-29, human prostate cancer line DU145, human uterine cervix carcinoma cell line HeLa, human hepatocarcinoma cell line HepG2 (ATCC, American Type Culture Collection) were cultivated in DMEM (BioWhittaker, Cambrex Bio Science, Belgium) in a 5% CO2 atmosphere at 37° C.
(§3) Cell vitality was assessed with a 0.4% Trypan Blue exclusion test, using an automated Countess cell counter (Life Technologies™).
(§4) The model created appears adapted for the study of plant extracts to be used in association with the classic chemotherapeutic agents. Then cells were treated with doxorubicin, with plant extracts or with their association, and cell vitality was analysed by Trypan Blue/Countess Invitrogen as described in the annexed Materials and Methods. The following treatments were performed:
MDA-MB231 cells cultivated under normoxia and under chronic hypoxia were treated for 24 hours with various concentrations of doxorubicin, elective drug in the treatment of breast cancer.

ChR-MDA-MB231 = test: cells; type: cell-based, human; conditions: Homo sapiens; chMDAMB231, chronic hypoxia; 24 hours; read-out: EC50 cell vitality
Protocol: (§5) To establish a chronic hypoxia model, the above cell lines were cultivated in DMEM with 10% FBS in 5% CO2 and 1% O2 atmosphere, balanced with N using a multigas incubator (Ruskinn C300, Ruskinn Technology Ltd., Bridgend, United Kingdom). Cells survived through each cell passage were selected and cultivated with reoxygenation and hypoxia cycles for at least 3 months and up to 6 months.
as §3
(§6) In order to re-create a state of chronic hypoxia, present in the interior of a solid tumour, all cell lines indicated in the table above were cultivated for some months in the Ruskin Cabinet at 37° C., under a 1% O2 atmosphere. The medium was changed every three days so as to eliminate dead cells, and approximately every 10-15 days the cells were placed in the incubator under normoxia conditions for 24 hours.
(§7) Among all cells analysed, only MDA-MB231 cell line adapted to the hypoxic environment and survived. […]
as §4, with “The following treatments were performed:” left out

in vitro = type: cell-based, human; conditions: human
Protocol: as §5, §3, §6, §7
as §4, with “The following treatments were performed:” left out

Compound	glutathionylation of STAT3 (STAT3 [1])	binding of STAT3 to DNA (EMSA) (STAT3 [2])	phosphorylation of STAT3 (Western Blot) (STAT3 [2])	intracellular concentration of GSH (GSH)	cell vitality (WST-1) ([3]; 24 and 48 hours, extract 50-600 μg/ml, cynaropicrin 0-70 μM)	concentration of cynaropicrin for reduction of vitality equal to approximately 90% ([3]; 48 hours, cynaropicrin alone)	binding of STAT3 to DNA (EMSA) (STAT3 [4])	phosphorylation of STAT3 (Western Blot) (STAT3 [4])	molarity of cynaropicrin necessary to reduce cell vitality below 20%, relative to that present in the artichoke extract ([5]; with cisplatinum 15 μg/ml)	molarity of cynaropicrin necessary to reduce cell vitality below 20%, relative to that present in the artichoke extract ([5]; with doxorubicin 2 μg/ml)	EC50 (MDA-MB231)	EC50 (ChR-MDA-MB231)	mortality at 0.25 ug/ml (in vitro)
C=C(CO)C(=O)O[C@H]1CC(=C)[C@@H]2C[C@H](O)C(=C)[C@@H]2[C@H]2OC(=O)C(=C)[C@@H]21 [cynaropicrin]	determines the glutathionylation of STAT3	inhibit the binding of STAT3 to DNA	inhibit the phosphorylation of STAT3	time-dependent and dose-dependent reduction of the intracellular concentration of GSH	inhibits cell vitality in a time-dependent and dose-dependent manner	50 µM	inhibits the binding of STAT3 to DNA	inhibits the phosphorylation of STAT3	forty times greater	approximately twenty-five times greater			
COc1cccc2c1C(=O)c1c(O)c3c(c(O)c1C2=O)C[C@@](O)(C(=O)CO)C[C@@H]3O[C@H]1C[C@H](N)[C@H](O)[C@H](C)O1 [doxorubicin]											0.25 µg/mL (≈ 0.46 µM)	1 µg/mL (≈ 1.84 µM)	20%
